Among the data in PubChem BioAssay (NCI) are GI50 and TGI values, retold here.

Holding throughout (assay): inhibition of tumour cell growth, NCI panel, 48 h
Experiment [1] deals with OVCAR-3 ovarian.
Experiment [2] relates to HOP-62 NSCLC.
Experiment [3] deals with SF-268 CNS.
Experiment [4] concerns SN12C renal.
In experiment [5] the test system is BT-549 breast.
The subject of experiment [6] is KM12 colon.
In experiment [7] the test system is DU-145 prostate.
Experiment [8] relates to SF-539 CNS.
Experiment [9] relates to MCF7 breast.
Experiment [10] has as its system PC-3 prostate.

Where “and” joins values, the source holds several entries; their conditions need not be identical. Equal values may be shown once.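 In this assay, cells in 96-well plates receive the compound at five concentrations for 48 hours. Endpoints are linearly interpolated between the surrounding concentrations. Abbreviation: GI50, concentration required for 50% inhibition of growth. TGI: total growth inhibition.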 A value given as a limit tells only on which side of the number the result lay.

Regarding `COc1ccc(NC(=O)c2cccc(C3CCc4c(cc(OC)c(OC)c4OC)O3)c2)cc1` (stereo not drawn), the GI50 in experiment [1] was 3.54 µM; in [2], 2.86 µM; in experiment [3], 5.13 µM; in [4], 3.7 µM; in experiment [5], 2.83 µM; in [6], 3.49 µM. In addition, the GI50 in experiment [7] is 2.93 µM; in [8], 2.52 µM; in [9], 3.11 µM; in experiment [10], 1.57 µM. Also, the TGI in experiment [1], in experiment [2], in experiment [3], in experiment [4], in [5] and in experiment [6] was over 100 µM each time. For the same compound, the TGI in [7] is over 100 µM; in [8] it was 7.01 µM; in [9], over 100 µM; in experiment [10], over 100 µM.
For the compound `COc1ccc2nc3ccccc3c(NCc3ccccc3)c2c1`, the GI50 in experiment [1] is 2.65 µM; in experiment [2] it was 2.62 µM; in experiment [3] it was 2.94 µM; in experiment [4] it was 2.71 µM; in experiment [5], 2.16 µM; in [6], 3.49 µM. For the same compound, the GI50 in experiment [7] is 3.18 µM; in experiment [8], 1.94 µM; in [9], 2.01 µM; in experiment [10], 2.35 µM. For the same compound, the TGI in experiment [1] worked out at 6.89 µM; in experiment [2], 9.95 µM; in experiment [3], 9.71 µM; in [4], 10.5 µM; in experiment [5], 5.18 µM; in experiment [6] it was 12.9 µM. Further, the TGI in [7] worked out at 10.3 µM; in [8], 3.96 µM; in experiment [9], 4.89 µM; in experiment [10], 7.39 µM.
Regarding `O=C(O)c1cc(Cl)cc(Cc2cc(Cl)cc(C(=O)O)c2O)c1O`, the TGI in experiment [1], in experiment [2], in [3], in experiment [4], in experiment [5] and in experiment [6] was over 100 µM in each case. For the same compound, the TGI in experiment [7], in experiment [8], in experiment [9] and in experiment [10] was over 100 µM throughout.
Take `Cc1cn(C2CC(O)C(COC(N)=O)O2)c(=O)[nH]c1=O` (stereo not drawn): the TGI in [1], in experiment [2], in experiment [3], in experiment [4], in experiment [5] and in experiment [6] was over 100 µM throughout. The TGI in [7], in experiment [8], in experiment [9] and in [10] was over 100 µM in each case.
As to `Nc1no[n+]([O-])c1-c1nnc2c(n1)-c1ccccc1C2=O`, the GI50 in experiment [1] was 0.569 µM; in experiment [2], 2.74 µM; in experiment [3], 4.4 µM; in experiment [4], 1.86 µM; in experiment [5], 2.99 µM; in experiment [6] it was 3.53 µM. The GI50 in experiment [7] is 1.74 µM; in experiment [8], 1.8 µM; in [9], 1.55 µM; in experiment [10], 2.91 µM. The TGI in experiment [1] was found to be 3.83 µM; in experiment [2] it was 10 µM; in experiment [3], 17.3 µM; in experiment [4], 3.51 µM; in experiment [5], 12.9 µM; in [6], 15.3 µM. Further, the TGI in [7] turned out to be 3.45 µM; in [8], 3.67 µM; in experiment [9], 3.94 µM; in experiment [10] it was 12.6 µM.
With `COc1cc(NCCC2CCCCN2)c2ncccc2c1OC` (stereo not drawn), the GI50 was 2.13 µM in experiment [1]; 17.3 µM in experiment [2]; 14.2 µM in experiment [3]; 2.23 µM in [4]; 19.9 µM in experiment [5]; 14.9 µM in [6]. The GI50 in experiment [7] is 13.1 µM; in [8] it was 14.1 µM; in [9] it was 3.19 µM; in experiment [10], 18.1 µM. Moreover, the TGI in [1] is 5.01 µM; in experiment [2] it was 32.4 µM; in experiment [3] it was 41.8 µM; in experiment [4], 6.77 µM; in experiment [5], 34.8 µM; in [6] it was 33.5 µM. The TGI in experiment [7] stood at 26.9 µM; in experiment [8], 28.5 µM; in [9], 15.2 µM; in [10], 72 µM.
As for `NCCCNc1nc2ccccc2c2c(=O)c3cc(F)cc(Cl)c3sc12`, the GI50 in experiment [1] is 1.78 µM; in experiment [2], 1.77 µM; in experiment [3], 1.61 µM; in experiment [4], 1.71 µM; in experiment [5] it was 12.9 µM; in [6] it was 1.72 µM. The GI50 in experiment [7] is 1.72 µM; in experiment [8] it was 1.83 µM; in [9], 1.19 µM; in experiment [10], 1.76 µM. Also, the TGI in [1] was 3.25 µM; in experiment [2], 3.9 µM; in experiment [3] it was 3.29 µM; in [4] it was 3.24 µM; in [5], 26.7 µM; in experiment [6], 3.17 µM. The TGI in [7] is 3.17 µM; in [8] it was 3.27 µM; in [9] it was 2.68 µM; in experiment [10], 3.35 µM.
For the compound `NC(Cc1c[nH]c2cccc(F)c12)C(=O)O` (stereo not drawn), the GI50 is 39.6 µM and 237 µM in [1]; 801 µM in [3]; 959 µM in [4]; 151 µM in experiment [5]; 25.2 µM and 230 µM in experiment [6]; 32 µM and 297 µM in [7]. The GI50 in experiment [8] is 381 µM; in experiment [9] it was 35.4 µM and 327 µM. In addition, the TGI in experiment [1] was 967 µM; in [2], 3180 µM; in experiment [3] it was over 4500 µM; in experiment [4], over 4500 µM; in experiment [5] it was 873 µM; in [6] it was over 4500 µM. Moreover, the TGI in [7] is over 4500 µM; in [8], 3040 µM; in [9] it was 1650 µM; in experiment [10], over 4500 µM.
Turning to `NS(=O)(=O)c1cc(C(=O)O)c(Cl)c([N+](=O)[O-])c1Cl`, the TGI in [1], in experiment [2], in experiment [3], in experiment [4], in [5] and in experiment [6] was over 100 µM each time. In addition, the TGI in experiment [7], in experiment [8], in experiment [9] and in experiment [10] was over 100 µM each time.
As to `C=CCN1C(=O)[C@]2(SC1=S)[C@H](c1cccc(Cl)c1)CN(C)[C@]21C(=O)NC2C=CC(Cl)=C[C@H]21` (stereo partly drawn), the GI50 in [1] was 3.43 µM; in experiment [2] it was 3.59 µM; in experiment [3], 6.77 µM; in experiment [4] it was 1.81 µM; in [5] it was 2.06 µM; in experiment [6], 1.99 µM. The GI50 is 4.16 µM in [7], 10.3 µM in experiment [8], 2.68 µM in experiment [9] and 2.19 µM in experiment [10]. Besides, the TGI in [1] stood at 14.2 µM; in experiment [2], 16.2 µM; in experiment [3], 24.6 µM; in experiment [4], 3.77 µM; in experiment [5], 8.49 µM; in experiment [6], 6.35 µM. In addition, the TGI was determined as 14.6 µM in experiment [7], 25.6 µM in [8], 11.7 µM in experiment [9] and 13 µM in experiment [10].
Turning to `COC(=O)[C@H](CCCCNC(=O)OCc1ccccc1)NC(=O)[C@@H](NC(=O)Nc1cc(C(F)(F)F)cc(C(F)(F)F)c1)C(C)C`, the GI50 in experiment [1], in experiment [2], in [3], in experiment [4], in [5] and in experiment [6] was over 10 µM each time. Also, the GI50 in experiment [7], in experiment [8], in [9] and in experiment [10] was over 10 µM each time. In addition, the TGI in experiment [1], in experiment [2], in experiment [3], in experiment [4], in experiment [5] and in experiment [6] was over 10 µM each time. The TGI in experiment [7], in experiment [8], in [9] and in [10] was over 10 µM in each case.
On to `C=C1C(=O)O[C@H]2[C@H]1CC/C(COC(=O)N[C@H](Cc1c[nH]c3ccccc13)C(=O)OC)=C\CC[C@@]1(C)O[C@@H]21`, for which the GI50 in [1] was 1.44 µM; in experiment [2] it was 12.5 µM; in experiment [3], 5.17 µM; in experiment [4] it was 2.08 µM; in experiment [5], 1.37 µM; in [6], 11.8 µM. Also, the GI50 in experiment [7] was 1.61 µM; in [8] it was 2.01 µM; in experiment [9] it was 1.24 µM; in experiment [10], 6.49 µM. In addition, the TGI in experiment [1] was found to be 3.07 µM; in experiment [2], 28.5 µM; in experiment [3], 19.8 µM; in experiment [4], 5.69 µM; in experiment [5] it was 2.96 µM; in [6] it was 28.6 µM. Besides, the TGI is 4.37 µM in [7], 5.37 µM in [8], 2.99 µM in experiment [9] and 20.5 µM in experiment [10].
